Measurements: patent US9708336B2, “Metallo-beta-lactamase inhibitors” (priority 2014, dated 2017)
Where two headings read alike, the source gives them in different places.

Assays:
[1] = test system: Escherichia coli expressing NDM-1 (CLB30016); assay: Antibiotic potentiation activity: synergistic concentration (MITC95) with imipenem, OD600 growth; type: cell-based; conditions: for Escherichia coli expressing NDM-1 (CLB 30016) MITC95: concentration giving 95% inhibition of bacterial growth; for Escherichia coli MITC95: Escherichia coli expressing NDM-1 (CLB30016), 95% growth inhibition
Outline: (§1)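 Overnight colonies (35 °C) were suspended in saline, diluted 1:100 into 1.1× CAMHB, and exposed to test compound with imipenem at 4 μg/ml (optionally 1 μg/ml) in assay. After 22–24 h at 35 °C, growth was read by absorbance.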

[2] = test system: Serratia marcescens expressing IMP-1 (CL5741); assay: as above; type: cell-based; conditions: for Serratia marcescens expressing IMP-1 (CL5741) MITC95: concentration giving 95% inhibition of bacterial growth; for Serratia marcescens MITC95: Serratia marcescens expressing IMP-1 (CL5741), 95% growth inhibition
Outline: as §1

[3] = test system: Escherichia coli expressing NDM-1 (CLB30005); assay: as above; type: cell-based; conditions: for Escherichia coli expressing NDM-1 (CLB 30005) MITC95: concentration giving 95% inhibition of bacterial growth; for Escherichia coli MITC95: Escherichia coli expressing NDM-1 (CLB30005), 95% growth inhibition
Outline: as §1

[4] = test system: Klebsiella pneumoniae expressing VIM-1 (IHMA599644); assay: as above; type: cell-based; conditions: for Klebsiella pneumoniae expressing VIM-1 (IHMA 599644) MITC95: concentration giving 95% inhibition of bacterial growth; for Klebsiella pneumoniae MITC95: Klebsiella pneumoniae expressing VIM-1 (IHMA599644), 95% growth inhibition
Outline: as §1

IMP-1 = IMP-1 (Serratia marcescens, UniProt P52699); assay: biochemical; type: biochemical
NDM-1 = NDM-1 (Klebsiella pneumoniae, UniProt C7C422); assay: biochemical; type: biochemical; conditions: read-out: NDM-1 IC50
VIM-1 = VIM-1 (Pseudomonas aeruginosa (strain ATCC 15692 / DSM 22644 / CIP 104116 / JCM 14847 / LMG 12228 / 1C / PRS 101 / PAO1), UniProt A0A0F7KYQ8); assay: Enzyme activity: determination of IC50, fluorescence assay with CCF2-FA substrate (VIM-1); type: biochemical
[5] = fluorescence assay with CCF2-FA substrate, read-out: IMP-1 IC50
[6] = fluorescence assay with CCF2-FA substrate
[7] = VIM-1 IC50, fluorescence assay with CCF2-FA substrate
[8] = IMP-1 enzyme, CCF2-FA fluorescence assay, read-out: IMP-1 IC50
[9] = NDM-1 enzyme, CCF2-FA fluorescence assay
[10] = VIM-1 enzyme, CCF2-FA fluorescence assay, read-out: VIM-1 IC50
[11] = fluorescence assay with CCF2-FA substrate, read-out: VIM-1 IC50

NDM-1, sequence (C7C422 whole entry, looked up, species assumed): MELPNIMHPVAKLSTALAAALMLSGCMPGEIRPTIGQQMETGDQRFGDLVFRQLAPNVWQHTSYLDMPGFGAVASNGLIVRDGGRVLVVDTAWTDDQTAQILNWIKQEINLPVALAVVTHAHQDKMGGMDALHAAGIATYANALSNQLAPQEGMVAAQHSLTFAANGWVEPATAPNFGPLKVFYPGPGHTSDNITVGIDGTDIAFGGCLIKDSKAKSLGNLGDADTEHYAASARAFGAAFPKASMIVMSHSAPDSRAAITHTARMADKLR
IMP-1, sequence (P52699 whole entry, looked up): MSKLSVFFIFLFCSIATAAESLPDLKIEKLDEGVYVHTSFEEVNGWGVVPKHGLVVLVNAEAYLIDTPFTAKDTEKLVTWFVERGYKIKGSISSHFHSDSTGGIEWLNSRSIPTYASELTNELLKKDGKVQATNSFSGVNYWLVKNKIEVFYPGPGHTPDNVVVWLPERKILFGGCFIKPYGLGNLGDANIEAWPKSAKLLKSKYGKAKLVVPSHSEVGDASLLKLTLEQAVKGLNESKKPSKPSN

| Compound | Escherichia coli expressing NDM-1 (CLB 30016) MITC95 [1] | Serratia marcescens expressing IMP-1 (CL5741) MITC95 [2] | Escherichia coli expressing NDM-1 (CLB 30005) MITC95 [3] | Klebsiella pneumoniae expressing VIM-1 (IHMA 599644) MITC95 [4] | IC50 (IMP-1; [5]) | IC50 (NDM-1; [6]) | IC50 (VIM-1; [7]) | Escherichia coli MITC95 [1] | Serratia marcescens MITC95 [2] | Escherichia coli MITC95 [3] | Klebsiella pneumoniae MITC95 [4] | IC50 (IMP-1; [8]) | IC50 (NDM-1; [9]) | IC50 (VIM-1; [10]) | IC50 (VIM-1; [11]) | IC50 (VIM-1; VIM-1 IC50, VIM-1 enzyme, CCF2-FA fluorescence assay) | IC50 (IMP-1) |
| --- | --- | --- | --- | --- | --- | --- | --- | --- | --- | --- | --- | --- | --- | --- | --- | --- | --- |
| CN(C)CCCOc1ccc(-c2cccc(S(N)(=O)=O)c2-c2nn[nH]n2)cn1 [Example 30, 3-(6-(3-(dimethylamino)propoxy)pyridin-3-yl)-2-(2H-tetrazol-5-yl)benzenesulfonamide] | 1.563 µM | 50 µM | 3.125 µM | 200 µM | 1.67 µM | 0.132 µM | 0.875 µM | – | – | – | – | – | – | – | – | – | – |
| NS(=O)(=O)c1cccc(-c2cnc3ccoc3c2)c1-c1nn[nH]n1 [Example 311, 3-(furo[3,2-b]pyridin-6-yl)-2-(2H-tetrazol-5-yl)benzenesulfonamide] | – | – | – | – | – | – | – | 0.7813 µM | 3.906 µM | 0.1953 µM | 4.688 µM | 0.129 µM | 0.00111 µM | 0.00816 µM | – | – | – |
| Nc1ncc(-c2cccc(S(N)(=O)=O)c2-c2nn[nH]n2)cc1F [Example 314, 3-(6-amino-5-fluoropyridin-3-yl)-2-(2H-tetrazol-5-yl)benzenesulfonamide] | – | – | – | – | – | – | – | 0.3906 µM | 5.469 µM | 0.1953 µM | 3.906 µM | 0.292 µM | 0.00365 µM | – | – | – | – |
| NS(=O)(=O)c1nccc(-c2ccccc2)c1-c1nn[nH]n1 [Example 207, 4-phenyl-3-(2H-tetrazol-5-yl)pyridine-2-sulfonamide] | 0.5 µM | – | 0.1953 µM | – | 0.373 µM | 0.0351 µM | – | – | – | – | – | – | – | – | 0.201 µM | – | – |
| NS(=O)(=O)c1cccc(-c2cnc3[nH]ncc3c2)c1-c1nn[nH]n1 [Example 309, 3-(1H-pyrazolo[3,4-b]pyridin-5-yl)-2-(2H-tetrazol-5-yl)benzenesulfonamide] | – | – | – | – | – | – | – | 0.7813 µM | 8.333 µM | 0.3906 µM | 5.729 µM | 0.326 µM | 0.00135 µM | – | – | – | – |
| COc1ccc(-c2cccc(S(N)(=O)=O)c2-c2nn[nH]n2)cn1 [Example 78, 3-(6-methoxypyridin-3-yl)-2-(2H-tetrazol-5-yl)benzenesulfonamide] | – | 18.75 µM | 0.7813 µM | 100 µM | 0.203 µM | 0.0193 µM | – | – | – | – | – | – | – | – | 0.147 µM | – | – |
| COc1nc2cc(Cl)c(-c3cccc(S(N)(=O)=O)c3-c3nn[nH]n3)cc2[nH]1 [Example 279, 3-(5-chloro-2-methoxy-1H-benzo[d]imidazol-6-yl)-2-(2H-tetrazol-5-yl)benzenesulfonamide] | – | – | – | – | – | – | – | – | 25 µM | 0.5859 µM | 75 µM | 2.17 µM | 0.0323 µM | – | – | 0.183 µM | – |
| NS(=O)(=O)c1cccc(-c2ccc(N3CCCCC3)cc2)c1-c1nn[nH]n1 [Example 18, 4′-piperidin-1-yl-2-(2H-tetrazol-5-yl)biphenyl-3-sulfonamide] | – | 103.1 µM | 3.906 µM | >200 µM | 0.0234 µM | 0.00204 µM | 0.326 µM | – | – | – | – | – | – | – | – | – | – |
| CCOC(=O)N1CCC(c2cccc(S(N)(=O)=O)c2-c2nn[nH]n2)CC1 [Example 173, ethyl 4-(3-sulfamoyl-2-(2H-tetrazol-5-yl)phenyl)piperidine-1-carboxylate] | – | 6.25 µM | 4.688 µM | >200 µM | 0.149 µM | 0.00439 µM | 0.0856 µM | – | – | – | – | – | – | – | – | – | – |
| C[C@H]1NC(=O)O[C@H]1c1ccc(-c2cccc(S(N)(=O)=O)c2-c2nnn[nH]2)cc1 [Example 23, 4′-[(4R,5S)-4-methyl-2-oxo-1,3-oxazolidin-5-yl]-2-(1H-tetrazol-5-yl)biphenyl-3-sulfonamide] | – | 2.344 µM | 2.344 µM | 50 µM | 0.00436 µM | 0.000637 µM | – | – | – | – | – | – | – | – | 0.00976 µM | – | – |
| CC(C)(C)OC(=O)N1CCN(c2ccc(-c3cccc(S(N)(=O)=O)c3-c3nn[nH]n3)cc2)CC1 [Example 7, tert-butyl 4-[3′-sulfamoyl-2′-(2H-tetrazol-5-yl)biphenyl-4-yl]piperazine-1-carboxylate] | – | 12.5 µM | 6.25 µM | >200 µM | – | 0.00369 µM | – | – | – | – | – | – | – | – | 0.486 µM | – | 0.0294 µM |
| NS(=O)(=O)c1cccc(-c2ccc(-c3noc(C4CCNC4)n3)cc2)c1-c1nn[nH]n1 (stereo not shown) [Example 250, 4′-(5-(pyrrolidin-3-yl)-1,2,4-oxadiazol-3-yl)-2-(2H-tetrazol-5-yl)-[1,1′-biphenyl]-3-sulfonamide] | – | – | – | – | – | – | – | – | 4.688 µM | 0.7813 µM | 100 µM | 0.109 µM | 0.018 µM | 0.195 µM | – | – | – |
| NS(=O)(=O)c1cccc(-c2ccc3[nH]nnc3c2)c1-c1nn[nH]n1 [Example 74, 3-(1H-benzotriazol-5-yl)-2-(2H-tetrazol-5-yl)benzenesulfonamide] | – | 18.75 µM | 0.9766 µM | 50 µM | 1.61 µM | 0.0264 µM | 0.475 µM | – | – | – | – | – | – | – | – | – | – |
| NS(=O)(=O)c1cccc(-c2ccc(F)nc2)c1-c1nn[nH]n1 [Example 48, 3-(6-fluoropyridin-3-yl)-2-(2H-tetrazol-5-yl)benzenesulfonamide] | – | 33.33 µM | 0.3906 µM | 66.67 µM | 0.644 µM | 0.0191 µM | – | – | – | – | – | – | – | – | 0.182 µM | – | – |
| NS(=O)(=O)c1nccc(-c2ccc3c(c2)OCC(=O)N3)c1-c1nn[nH]n1 [Example 205, 4-(3-oxo-3,4-dihydro-2H-benzo[b][1,4]oxazin-7-yl)-3-(2H-tetrazol-5-yl)pyridine-2-sulfonamide] | – | 6.25 µM | 0.3906 µM | 9.375 µM | 0.113 µM | 0.0143 µM | – | – | – | – | – | – | – | – | 0.0241 µM | – | – |
| CCCc1ccc(-c2ccc(C3CCNCC3)cc2)c(-c2nnn[nH]2)c1S(N)(=O)=O [Example 260, 4′-(Piperidin-4-yl)-4-propyl-2-(1H-tetrazol-5-yl)-[1,1′-biphenyl]-3-sulfonamide] | – | – | – | – | – | – | – | – | 1.563 µM | 6.25 µM | 6.25 µM | 0.00672 µM | 0.0112 µM | 0.000797 µM | – | – | – |
| NS(=O)(=O)c1cccc(-c2ccc(-c3ccn[nH]3)cc2)c1-c1nn[nH]n1 [Example 50, 4′-(1H-pyrazol-5-yl)-2-(2H-tetrazol-5-yl)biphenyl-3-sulfonamide] | – | 12.5 µM | 2.344 µM | 200 µM | 0.0379 µM | 0.00271 µM | – | – | – | – | – | – | – | – | 0.0891 µM | – | – |
| NS(=O)(=O)c1nccc(-c2ccc3[nH]ncc3c2)c1-c1nn[nH]n1 [Example 199, 4-(1H-indazol-5-yl)-3-(2H-tetrazol-5-yl)pyridine-2 sulfonamide] | – | 6.25 µM | 0.3906 µM | 3.125 µM | 0.325 µM | 0.013 µM | – | – | – | – | – | – | – | – | 0.0248 µM | – | – |
| CS(=O)(=O)c1nc2cc(Cl)c(-c3cccc(S(N)(=O)=O)c3-c3nn[nH]n3)cc2[nH]1 [Example 278, 3-(5-chloro-2-(methylsulfonyl)-1H-benzo[d]imidazol-6-yl)-2-(2H-tetrazol-5-yl)benzenesulfonamide] | – | – | – | – | – | – | – | – | 37.5 µM | 3.125 µM | 100 µM | 0.536 µM | 0.0085 µM | 0.0791 µM | – | – | – |
| CNS(=O)(=O)c1ccc(-c2cccc(S(N)(=O)=O)c2-c2nn[nH]n2)cc1 [Example 57, N~4~-′-methyl-2-(2H-tetrazol-5-yl)biphenyl-3,4′-disulfonamide] | – | 4.688 µM | 1.563 µM | 25 µM | 0.0289 µM | 0.00419 µM | – | – | – | – | – | – | – | – | 0.0297 µM | – | – |
